Source: US9855292B2, “Cyanocobalamin, methylcobalamin, and/or adenosylcobalamin to help maintain a pain-free head and pain-free body and provide defense against headaches and body pain” (priority 2013, dated 2018)
Where two headings read alike, the source gives them in different places.

Assays:
[1] = tested on: moderate to moderately severe seasonal allergic rhinitis in humans; assay: Example 2 Phase 3 study: allergy symptom scores; type: in vivo, human; details: Weeks 4, 5 and 6; ITT; sneezing, runny nose, nasal congestion, nasal itch and eye itch
Description: (§1) This clinical study was designed and directed by the inventor of the current patent. A large, multi-center, Phase 3, randomized, placebo-controlled clinical study on 1,551 patients was designed and directed by the inventor of the current patent. Methods: The study was titled: “A Phase 3, randomized, double-blind, placebo-controlled, parallel group study of the safety and efficacy of pre-seasonal sublingual cyanocobalamin lozenges on moderate to moderately severe seasonal allergic rhinitis in humans”. The study took place before and during the ragweed pollen season at 23 study sites in the Midwest, Northeast and Central Texas regions of the United States. Essentially all of the 23 investigators were Board Certified in Allergy/Immunology. Qualified subjects were randomized into an active or placebo group (approximately 50% and 50%) using an interactive voice recognition system (IVRS). All subjects (or their guardians) signed an Informed Consent form approved by the IRB. Each subject had three visits to the clinic. […] The blood samples were analyzed by chemiluminescent immunoassay for the presence of ragweed specific immunoglobulin epsilon (IgE), and were assayed for cobalamins (cyanocobalamin, methylcobalamin and adenosylcobalamin) levels. […]

[2] = tested on: headache and body pain in humans; assay: Example 2 Phase 3 study: documented reports of headache and body pain; type: in vivo, human; details: active group
Description: This clinical study was designed and directed by the inventor of the current patent. A large, multi-center, Phase 3, randomized, placebo-controlled clinical study on 1,551 patients was designed and directed by the inventor of the current patent. Methods: The study was titled: “A Phase 3, randomized, double-blind, placebo-controlled, parallel group study of the safety and efficacy of pre-seasonal sublingual cyanocobalamin lozenges on moderate to moderately severe seasonal allergic rhinitis in humans”. The study took place before and during the ragweed pollen season at 23 study sites in the Midwest, Northeast and Central Texas regions of the United States. Essentially all of the 23 investigators were Board Certified in Allergy/Immunology. Qualified subjects were randomized into an active or placebo group (approximately 50% and 50%) using an interactive voice recognition system (IVRS). All subjects (or their guardians) signed an Informed Consent form approved by the IRB. Each subject had three visits to the clinic. At Visit 1 and at Visit 3, they were given a physical exam (HEENT, chest, lungs, heart, vital signs, height and weight); and donated blood and urine samples for laboratory analysis. CBC and chemistry panels were run for safety analyses. The blood samples were analyzed by chemiluminescent immunoassay for the presence of ragweed specific immunoglobulin epsilon (IgE), and were assayed for cobalamins (cyanocobalamin, methylcobalamin and adenosylcobalamin) levels.
Subjects were given their study medication, either 3.3 mg Cyanocobalamin, USP or placebo in the a.m. and p.m. Subjects were instructed to let the study drug “dissolve completely in your mouth, especially under your tongue, then swallow.”. Subjects self-administered the study medications for six consecutive weeks.
Any adverse event (AE) or serious adverse event (SAE) was documented by the subject in a paper diary and then transcribed to the appropriate case report form (CRF) page. All SAEs were attended to by the investigator, and reported to the FDA by the sponsor. All sites were monitored multiple times by qualified monitors.
The following types of headaches were self-diagnosed and documented by subjects in the study: tension headache, headache, migraine, increased frequency of headaches, worsening sinus migraine headache, increased headache, headache worsening, worsening of migraine, sinus headache, severe sinus headache, and sinus pressure headache.
The following types of body pains and myasthenia were self-diagnosed and documented by subjects in the study: ear pain, earache, sore throat, sore muscles, leg cramps, myalgia, back pain, sprained ankle, ache, toothache, hip pain, finger pain, knee pain, pulled back muscle, shoulder pain, pulled hamstring, neck pain, femur pain, gum pain, sore muscle, toenail pain, sore foot, and pulled neck muscle.

migraine patients [3] = details: 2 mg intramuscularly every two weeks for two months, cited from earlier work
[4] = Example 2 Phase 3 study: safety; type: in vivo, human; details: 3.3 mg a.m. and p.m., six weeks
Description: This clinical study was designed and directed by the inventor of the current patent. A large, multi-center, Phase 3, randomized, placebo-controlled clinical study on 1,551 patients was designed and directed by the inventor of the current patent. Methods: The study was titled: “A Phase 3, randomized, double-blind, placebo-controlled, parallel group study of the safety and efficacy of pre-seasonal sublingual cyanocobalamin lozenges on moderate to moderately severe seasonal allergic rhinitis in humans”. The study took place before and during the ragweed pollen season at 23 study sites in the Midwest, Northeast and Central Texas regions of the United States. Essentially all of the 23 investigators were Board Certified in Allergy/Immunology. Qualified subjects were randomized into an active or placebo group (approximately 50% and 50%) using an interactive voice recognition system (IVRS). […] The blood samples were analyzed by chemiluminescent immunoassay for the presence of ragweed specific immunoglobulin epsilon (IgE), and were assayed for cobalamins (cyanocobalamin, methylcobalamin and adenosylcobalamin) levels.
Any adverse event (AE) or serious adverse event (SAE) was documented by the subject in a paper diary and then transcribed to the appropriate case report form (CRF) page. […] All sites were monitored multiple times by qualified monitors.

[5] = Example 2 Phase 3 study: blood serum cobalamin levels; type: in vivo, human; details: cyanocobalamin, methylcobalamin and adenosylcobalamin; 3.3 mg a.m. and p.m., six weeks
Description: as §1

[6] = tested on: human subjects with demonstrated seasonal allergic rhinitis (hay fever); assay: Example 1 clinical study: reports of Headache after 21 days of study medication; type: in vivo; details: for post-treatment reports of Headache, decrease from baseline: active group
Experimental: This clinical study was designed and directed by the inventor of the current patent. […] Subjects were given their study medication, either Cyanocobalamin, USP or placebo in the a.m. and p.m. every day for 21 consecutive days. Data on adverse events including headache was captured throughout the ten-week duration of the study. Week One was a baseline during which time no medication was administered; Weeks Two, Three and Four were the weeks during which time the subjects received their study medication; and Weeks Five through Ten were a post-treatment period during which time no medication was administered but observations of symptoms and adverse events were documented. Each time a subject felt a “Headache”, he or she reported its occurrence.

migraine patients [7] = details: cited from earlier work; for mean migraine severity: 0-3 scale, all subjects

## 5,6-dimethylbenzimidazolyl cyanocobamide [cyanocobalamin]
[1]
  reduction in allergy symptom severity from baseline versus placebo: greater for the active group than the placebo group
[2]
  headache and body pain reports rated Mild: 63 reports
  headache and body pain reports rated Mild, share: 46.0%
  headache and body pain reports rated Moderate: 68 reports
  headache and body pain reports rated Moderate, share: 49.6%
  headache and body pain reports rated Severe: 6 reports
  headache and body pain reports rated Severe, share: 4.4%
[2]; of 294 reports in total
  documented reports of some type of headache and of body pain: 137 reports
Migraine patients [3]
  authors' conclusion on therapeutic effect: no therapeutic effect attributable to cyanocobalamin was demonstrated
Migraine patients [3]; active n=15
  patients reporting Considerable improvement: 2
  patients reporting Good result: 4
[4]
  safety / tolerability: well tolerated
[5]
  average increase in post-treatment blood serum cobalamin levels: more than 250%
[6]; Week Eight
  post-treatment reports of Headache, decrease from baseline: −2.1
[6]; Week Five
  post-treatment reports of Headache, decrease from baseline: −1.4
[6]; Week Nine
  post-treatment reports of Headache, decrease from baseline: −3.4
[6]; Week Seven
  post-treatment reports of Headache, decrease from baseline: −1.4
[6]; Week Six
  post-treatment reports of Headache, decrease from baseline: −1.6
[6]; Week Ten
  post-treatment reports of Headache, decrease from baseline: −3.2
[6]; almost one year later, 43 active and 49 placebo subjects
  persistence of effect per follow-up questionnaire: persistence of effect lasting almost one year
[6]; post-treatment Weeks Five through Ten
  persistence of effect after finishing the treatment: at least six weeks
[6]; six post-treatment weeks
  greater reduction in the frequency of headache in the active group versus placebo: five out of six post-treatment weeks

## C/C1=C2/[N-][C@H]([C@H](CC(N)=O)[C@@]2(C)CCC(=O)NC[C@@H](C)OP(=O)([O-])O[C@H]2[C@@H](O)[C@@H](n3cnc4cc(C)c(C)cc43)O[C@@H]2CO)[C@]2(C)N=C(/C(C)=C3N=C(/C=C4N=C1[C@@H](CCC(N)=O)C\4(C)C)[C@@H](CCC(N)=O)[C@]\3(C)CC(N)=O)[C@@H](CCC(N)=O)[C@]2(C)CC(N)=O.[Co+3].[OH-] [hydroxocobalamin]
Migraine patients [7]; at baseline
  mean migraine severity: 2.2
Migraine patients [7]; at the end of the study
  mean migraine severity: 2.1
Migraine patients [7]; intranasal, unblinded, open-label, 19 migraine patients
  effect on migraine: can have an effect on migraine
